# Patent US7030162B2, “Treatment of migraine headache” (POZEN Inc., priority 1996, dated 2006)
# Counter-ions that a name gives are not always drawn.
# Columns and labels:
# [1] = cited from earlier work; for half-life: pharmacokinetic half-life; for time of peak plasma concentrations: after oral dosing, normal subjects
# migraine patients = experiment: Earlier phase II study of metoclopramide on pain variables; format: in vivo, human
# [2] = naproxen sodium: water of neutral pH; cited from earlier work
# [3] = human, in vivo
# Method: Twenty-four healthy volunteers (14 females and 10 males), aged 20–55 years, received each of the four treatments. […] Standard pharmacokinetic parameters were calculated, including maximum plasma concentrations over the entire sampling phase (Cmax), time to attain maximal plasma concentrations (Tmax), and area under the plasma concentration-time curve (AUCI-time 0 to infinity).
structure (smiles),measurement,setting,value
Cc1ccc(-c2cc(C(F)(F)F)nn2-c2ccc(S(N)(=O)=O)cc2)cc1 [celecoxib],time to peak plasma levels,[1]; in vivo,approximately 3 hours
same,half-life,[1],approximately 11 hours
CC(C(=O)O)c1ccc(-c2ccccc2)c(F)c1 (stereo not shown) [flurbiprofen],half-life,[1],about 6 hours
Cc1ccc(Cl)c(Nc2ccccc2C(=O)O)c1Cl [meclofenamate],time to peak plasma levels,[1]; in vivo,0.5 to 1 h
"CCN(CC)CCNC(=O)c1cc(Cl)c(N)cc1OC [Metoclopramide hydrochloride, metoclopramide hydrochloride]",effect on pain variables,migraine patients,without significant effect
same,solubility in water,[2],freely soluble
same,tolerability,[3],well tolerated
O=C(O)CCc1nc(-c2ccccc2)c(-c2ccccc2)o1 [oxaprozin],half-life,[1],42 to 50 h
CC(=O)Nc1ccc(O)cc1 [acetaminophen],time of peak plasma concentrations,[1],about 1 hour
O=C(c1ccccc1)c1ccc2n1CCC2C(=O)O (stereo not shown) [ketorolac],half-life,[1],8 to 9 h
Cc1cccc(Nc2ccccc2C(=O)O)c1C [mefenamic acid],half-life,[1],up to 4 hours
COc1ccc2cc([C@H](C)C(=O)O)ccc2c1 [naproxen],tolerability,[3],well tolerated
CC(C(=O)O)c1cccc(C(=O)c2ccccc2)c1 (stereo not shown) [ketoprofen],time to peak plasma levels,[1]; in vivo,one-half to 2
CC(=O)Oc1ccccc1C(=O)O [aspirin],time of peak plasma concentrations,[1],about 1 hour
same,plasma half life,[1]; in vivo,very short
CCc1cccc2c3c([nH]c12)C(CC)(CC(=O)O)OCC3 (stereo not shown) [etodolac],half-life,[1],about 7 hours
